Publication PMC8658948, “Exploring Amantadine Derivatives as Urease Inhibitors: Molecular Docking and Structure–Activity Relationship (SAR) Studies” (Molecules, 2021)
pIC50, pKi: −log10 of the molar value. Read-outs that look alike come from different tables or passages of the source.

What was measured:
[1] = target: T1, Jack bean urease (Canavalia ensiformis, UniProt P07374); assay: biochemical
Description: The amount of NH3 produced with indophenol’s method reported in the literature was used to estimate Jack bean urease activity. In a 96-well plate, reaction mixtures containing 20 µL of Jack bean urease at 5 U/mL and 20 µL of compounds in 50 µL of potassium phosphate buffer (100 mM urea, 10 mM K2HPO4, 1 mM EDTA, and 10 mM LiCl, pH 8.2) were incubated for 30 min at 37 °C. Briefly, 50 μL each of phenol reagents (1%, w/v phenol and 0.005%, w/v sodium nitroprusside) and 50 μL of alkali reagent (0.5%, w/v NaOH and 0.1% NaOCl were added to each well. The absorbance at 625 nm was evaluated after 10 min by utilizing a microplate reader (OPTIMax, Tunable). Each of the reactions was accomplished in triplicate. The urease inhibition activities were calculated using the following formula:(1) Urease inhibition activity %=ODcontrol−ODsample×100/ODcontrol where ODcontrol and ODsample represent the optical densities in the absence and presence of sample, respectively, by using thiourea as standard.

[2] = DPPH free radical scavenging assay; details: 100 µg/mL, mean (SEM)
Description: The 2,2-diphenyl-1-picrylhydrazyl (DPPH) test was used to assess radical scavenging activity. By using ascorbic acid as a reference inhibitor, 100 µL of DPPH ([…]), 20 µL of escalating concentrations of test compounds, and the volume adjusted to 200 µL in each well with methanol were incubated for 30 min at room temperature. At 517 nm, an OPTI Max Tunable microplate reader was used to perform assay measurements. The % inhibition caused by the investigated inhibitors was calculated after response rates were compared.

[3] = target: T1, Jack bean urease; assay: Kinetic analysis of urease inhibition (Lineweaver-Burk plot); assay type: biochemical; details: for Vmax: substrate urea
Excerpt: The kinetic studies of the enzyme by the Lineweaver–Burk plot of 1/V versus 1/[S] in the presence of different compound concentrations produced a series of straight lines (Figure 3A). […] Thus, compounds 3f inhibit the urease non-competitively in order to form an enzyme inhibitor complex.
Based on IC50 values, compound 3j was identified as the most powerful. Changing the concentration of urea at different concentrations of 3j (0.00, 0.0042, 0.0085, and 0.017 M) was used to study kinetics. For urease kinetics, the urea concentration was quickly adjusted from 100, 50, 25, 12.5, 6.25, and 3.12 mM. The highest preliminary velocities were determined from initial linear portion of absorbance up to 10 min after the addition of enzyme at per minute’s interval. The inhibition type was determined by Lineweaver-Burk plot (1/V) versus 1/[S] mM^−1. The EI dissociation constant Ki was ascertained by secondary plot of 1/V against inhibitor concentration. […] The results were processed by using SoftMaxPro.

T1 sequence (P07374 whole entry, looked up): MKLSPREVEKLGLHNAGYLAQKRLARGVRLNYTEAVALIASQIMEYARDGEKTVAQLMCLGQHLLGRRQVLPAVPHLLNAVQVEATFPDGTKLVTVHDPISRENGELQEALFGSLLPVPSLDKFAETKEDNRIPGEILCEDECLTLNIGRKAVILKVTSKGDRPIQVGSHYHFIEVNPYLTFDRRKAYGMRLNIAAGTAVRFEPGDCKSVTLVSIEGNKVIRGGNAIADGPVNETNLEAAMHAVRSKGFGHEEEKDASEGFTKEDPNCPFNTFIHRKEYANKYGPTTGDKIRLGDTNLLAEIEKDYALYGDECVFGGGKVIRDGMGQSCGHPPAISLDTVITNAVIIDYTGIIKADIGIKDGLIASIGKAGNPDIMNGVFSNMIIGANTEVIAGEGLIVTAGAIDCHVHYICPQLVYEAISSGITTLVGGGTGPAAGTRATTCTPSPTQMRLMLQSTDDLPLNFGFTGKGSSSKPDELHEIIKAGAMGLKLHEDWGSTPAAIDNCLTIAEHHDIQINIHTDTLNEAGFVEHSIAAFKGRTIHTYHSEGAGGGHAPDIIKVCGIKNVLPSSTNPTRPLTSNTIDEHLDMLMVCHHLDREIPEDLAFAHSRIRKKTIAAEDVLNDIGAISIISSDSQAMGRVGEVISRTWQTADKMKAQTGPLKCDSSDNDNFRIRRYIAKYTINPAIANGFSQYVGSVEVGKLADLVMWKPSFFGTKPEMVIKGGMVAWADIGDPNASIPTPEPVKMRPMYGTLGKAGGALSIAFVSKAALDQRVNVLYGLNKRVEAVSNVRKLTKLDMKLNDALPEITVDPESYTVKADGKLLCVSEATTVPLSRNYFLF

| SMILES | pIC50 [1] | Free radical % Scavenging [2] | melting point | other results |
| --- | --- | --- | --- | --- |
| O=C(NC(=S)NC12CC3CC(CC(C3)C1)C2)c1ccc(F)cc1 [Compound 3a, N-(Adamantan-1-ylcarbamothioyl)-4-fluorobenzamide] | 8.00 | 4.18 (0.03) % | 180 to 182 °C | – |
| O=C(NC(=S)NC12CC3CC(CC(C3)C1)C2)c1ccc(Cl)cc1Cl [Compound 3b, N-(Adamantan-1-ylcarbamothioyl)-2,4-dichlorobenzamide] | 8.00 | 1.46 (0.02) % | 204 to 205 °C | – |
| CCCC(=O)NC(=S)NC12CC3CC(CC(C3)C1)C2 [Compound 3c, N-(Adamantan-1-ylcarbamothioyl)butyramide] | 7.52 | 2.51 (0.00) % | 136 to 137 °C | – |
| COc1ccc(C(=O)NC(=S)NC23CC4CC(CC(C4)C2)C3)cc1 [Compound 3d, N-(Adamantan-1-ylcarbamothioyl)-4-methoxybenzamide] | 7.70 | 1.86 (0.01) % | 178 to 179 °C | – |
| O=C(NC(=S)NC12CC3CC(CC(C3)C1)C2)c1ccc(Cl)cc1 [Compound 3e, N-(Adamantan-1-ylcarbamothioyl)-4-chlorobenzamide] | 7.52 | 13.36 (0.01) % | 182 to 183 °C | – |
| CCCCC(=O)NC(=S)NC12CC3CC(CC(C3)C1)C2 [Compound 3f, N-(Adamantan-1-ylcarbamothioyl)pentanamide] | 7.52 | 4.26 (0.00) % | 141 to 142 °C | – |
| O=C(NC(=S)NC12CC3CC(CC(C3)C1)C2)c1ccccc1Cl [Compound 3g, N-(Adamantan-1-ylcarbamothioyl)-2-chlorobenzamide] | 8.06 | 1.12 (0.03) % | 185 to 187 °C | – |
| CCCCCCC(=O)NC(=S)NC12CC3CC(CC(C3)C1)C2 [Compound 3h, N-(Adamantan-1-ylcarbamothioyl)heptanamide] | 8.00 | 15.36 (0.01) % | 149 to 151 °C | – |
| O=C(NC(=S)NC12CC3CC(CC(C3)C1)C2)c1cc([N+](=O)[O-])cc([N+](=O)[O-])c1 [Compound 3i, N-(Adamantan-1-ylcarbamothioyl)-3,5-dinitrobenzamide] | 8.00 | 5.91 (0.05) % | 210 to 211 °C | – |
| CCCCCCCC(=O)NC(=S)NC12CC3CC(CC(C3)C1)C2 [Compound 3j, N-(Adamantan-1-ylcarbamothioyl)octanamide] | – | 9.96 (0.06) % | 158 to 159 °C | pKi [3]: 8.15; Inhibition Type ([3]; Lineweaver-Burk plot): Non-Competitive; Vmax ([3]; inhibitor dose 0.0042 µM): 0.001561 ΔA/Min; Vmax ([3]; inhibitor dose 0.0085 µM): 0.001224 ΔA/Min; Vmax ([3]; inhibitor dose 0.017 µM): 0.001208 ΔA/Min |
| NC(N)=S [Thiourea, reference compound] | – | – | – | pIC50 ([1]; Jack bean urease, 30 min at 37 °C, pH 8.2, mean (SEM), read-out: Urease Activity IC50 ± SEM): 5.32 |
| O=C1O[C@H]([C@@H](O)CO)C(O)=C1O [Vitamin C, ascorbic acid, reference compound] | – | 95.15 (0.05) % | – | – |
